Reference: US20080164212A1, “Method for Determining and Controlling the Formation of Deposits In a Water System” (ASHLAND LICENSING AND INTELLECTUAL PROPERTY LLC., priority 2005, published 2008)

Test system: total germ count (aerobic bacteria) in wire water of a newsprint paper machine
Assay: Total germ count by plating on agar, wire water in a flow cell system dosed daily with biocide
Format: cell-based
Settings: 5 days in a flow cell, 48° C.
Protocol: Furthermore, conventional platings on agar (Plate Count Agar from Merck, Darmstadt, Germany) were also carried out to obtain an indication of the total germ counts.
The aim was to determine the correlation between the results of a conventional biocide screening and the real formation of slime deposits. The investigations were carried on the wire water of a newsprint paper machine using 100% TMP. With a biocide screening, it was possible to determine the optimum biocide concentration for the achievement of a germ count reduction by 10^2 within 30 minutes. In order to follow slime formation at this biocide concentration, a flow cell system with suspended coupons was employed.
The wire water, which was also used for the biocide screening, was poured into the storage bottles of this system and enriched with a number of clots of slime from the wire water channel. The investigation was carried out at system temperature (in this case 48° C.). During the test period of 5 days, biocide was dosed daily. After exposure, the coupons were immediately selectively dyed in order to distinguish between live and dead organisms and then analysed with CLSM. Samples were plated on an agar medium (aerobically) at the same time.

`N#CC(Br)(Br)C(N)=O` [DBNPA, dibromonitrile propionamide] was tested, and the Total germ count (DBNPA 40 ppm product) was under 1000 cfa/ml.

With `CC(=O)OO` [peracetic acid] the Total germ count (peracetic acid 60 ppm product) was under 1000 cfu/ml.
